Structures are written as SMILES. Like-named read-outs stand apart in the source and are kept apart here.

In the assay the test system is S. aureus 6538. In words: Synergy test, microtiter plate high resolution MIC assay, bacterium. It is filed as cell-based. To be noted: for SI (calculated synergy index): S. aureus 6538, TSB. An excerpt:
One measure of synergism is the industrially accepted method described by Kull, F. C.; Eisman, P. C.; Sylwestrowicz, H. D. and Mayer, R. L., in Applied Microbiology 9:538-541 (1961), using the ratio determined by the formula: Qa/QA+Qb/QB=Synergy Index (“SI”) wherein: • QA=concentration of compound A (first component) in ppm, acting alone, which produced an end point (MIC of Compound A). • Qa=concentration of compound A in ppm, in the mixture, which produced an end point. • QB=concentration of compound B (second component) in ppm, acting alone, which produced an end point (MIC of Compound B). • Qb=concentration of compound B in ppm, in the mixture, which produced an end point.
When the sum of Qa/QA and Qb/QB is greater than one, antagonism is indicated. […] The lower the SI, the greater the synergy shown by that particular mixture. The minimum inhibitory concentration (MIC) of a microbicide is the lowest concentration tested under a specific set of conditions that prevents the growth of added microorganisms.
Synergy tests were conducted using standard microtiter plate assays with media designed for optimal growth of the test microorganism. Soybean Casein Digest Broth (Tryptic Soy Broth, TSB medium) or minimal salt medium supplemented with 0.2% glucose and 0.1% yeast extract (M9GY medium) was used for testing bacteria; Potato Dextrose Broth (PDB medium) was used for testing yeast and mold. In this method, a wide range of combinations of microbicides was tested by conducting high resolution MIC assays in the presence of various concentrations of MI. High resolution MICs were determined by adding varying amounts of microbicide to one column of a microtitre plate and doing subsequent ten-fold dilutions using an automated liquid handling system to obtain a series of endpoints ranging from 2 ppm to 10,000 ppm active ingredient.

For the molecule `Cn1sccc1=O` [2-methyl-3-isothiazolone, 2-methyl-4-isothiazolin-3-one], the MIC was 200 µg/mL (Staphylococcus aureus, 6538, 24 h, read-out: Qa: end-point activity (MIC) of MI in the mixture (MI alone, QA, where Qb = 0)); 300 µg/mL (Staphylococcus aureus, 6538, 48 h, read-out: MIC of component acting alone (QA / QB)); 300 µg/mL (Staphylococcus aureus, 6538, 48 h, read-out: Qa: end-point activity (MIC) of MI in the mixture (MI alone, QA, where Qb = 0)); 300 µg/mL (Staphylococcus aureus, 6538, 72 h, read-out: MIC of component acting alone (QA / QB)). Further, the “SI (calculated synergy index)” value (Table 5, 48 hours) is recorded as 1.00 and the “SI (calculated synergy index)” value (Table 6, 24 hours) is on record as 1.00.

(Values after patent US7468384B2, “Microbicidal composition” (Rohm and Haas Company, priority 2004, dated 2008).)
